We go through nine compounds from PubChem BioAssay (NCI).

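Five compound concentrations were applied to cells in 96-well plates for 48 hours; endpoints were derived by simple linear interpolation of the resulting dose-response curve. The concentration for full growth arrest is given as TGI.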

Holding throughout (test): NCI tumour cell line growth inhibition, 48 h
Assay [1] deals with OVCAR-8 ovarian.
Assay [2] has as its system HCC-2998 colon.
Assay [3] concerns NCI/ADR-RES ovarian.
Assay [4] has as its system SNB-19 CNS.
Assay [5] deals with NCI-H23 lung.
Assay [6] has as its system HT29 colon.
In assay [7] the test system is SK-MEL-5 melanoma.
In assay [8] the test system is CCRF-CEM leukemia.
Assay [9] deals with NCI-H226 lung.
Assay [10] relates to SF-295 CNS.
Assay [11] deals with M14 melanoma.
Assay [12] deals with TK-10 renal.
The test system of assay [13] is SN12C renal.
Assay [14] relates to OVCAR-5 ovarian.
The test system of assay [15] is A549 NSCLC.
The test system of assay [16] is SK-MEL-2 melanoma.

Turning to `CCOC(=O)Cn1c(=O)c2nc(SC)sc2n(CC)c1=S`, the TGI in assay [1], in assay [2], in assay [3], in assay [4], in assay [5] and in [6] was above 100 µM throughout. Further, the TGI in assay [7] is above 100 µM; in assay [8] it was above 100 µM; in assay [9], above 100 µM; in assay [10] it was above 100 µM; in assay [11] it was 17.4 µM; in assay [12], above 100 µM. The TGI in assay [13], in assay [14], in assay [15] and in assay [16] was above 100 µM each time.

Turning to `CCOP(=O)(OCC)C(Nc1ccc(Br)cc1)c1cccc([N+](=O)[O-])c1` (configuration not stated), the TGI is above 100 µM in assay [1]; 32.4 µM in assay [2]; 44.8 µM in assay [3]; 47.6 µM in assay [4]; 53 µM in [5]; 34.3 µM in assay [6]. The TGI is 28.3 µM in assay [7]; 49.1 µM in assay [8]; 38.3 µM in assay [9]; 28.3 µM in [10]; 37 µM in [11]; 88.1 µM in assay [12]. Also, the TGI in assay [13] came out at 37.8 µM; in assay [14], 67.6 µM; in assay [15], 34.7 µM; in [16] it was 31.4 µM.

As to `COc1cc(-c2cc(-c3ccccc3)nc(-c3c(OC)ccc4c(C)cc(=O)oc34)c2)cc(OC)c1OC`, the TGI in [1], in assay [2], in assay [3], in [4], in assay [5] and in [6] was above 100 µM each time. The TGI in assay [7], in [8], in assay [9], in [10], in [11] and in [12] was above 100 µM each time. Besides, the TGI in assay [13], in assay [15] and in assay [16] was above 100 µM each time.

On to `CCCCc1ccc(Nc2nc(SC)c3[nH]cnc3n2)cc1`, for which the TGI in [1], in assay [2], in assay [3], in [4], in assay [5] and in [6] was above 100 µM each time. The TGI in assay [7] is above 100 µM; in [8], 12.3 µM; in assay [9], above 100 µM; in [10], above 100 µM; in assay [11], above 100 µM; in assay [12], above 100 µM. Moreover, the TGI in [13], in assay [14], in [15] and in [16] was above 100 µM each time.

Regarding `CN(C)CCNC(=O)c1cc([N+](=O)[O-])cc2c1Oc1ccccc1O2`, the TGI in assay [1] was above 100 µM; in assay [2], 24.1 µM; in assay [3], above 100 µM; in assay [5] it was above 100 µM; in assay [6], above 100 µM; in assay [7], above 100 µM. In addition, the TGI in assay [8] is above 100 µM; in [9], 50 µM; in assay [10] it was above 100 µM; in assay [11] it was above 100 µM; in [12] it was above 100 µM; in [13], above 100 µM. Further, the results for the TGI in assay [14], in assay [15] and in [16] were above 100 µM, above 100 µM and 56.3 µM, respectively.

For `Brc1cc(CCOC2CCCCO2)c(-c2sccc2CCOC2CCCCO2)s1` (configuration not stated), the TGI in assay [1], in [2], in [3], in assay [4], in [5] and in assay [6] was above 100 µM throughout. Further, the TGI is above 100 µM in assay [7]; above 82.5 µM in [8]; above 100 µM in assay [9]; above 100 µM in assay [10]; above 100 µM in assay [11]; above 100 µM in assay [12]. The TGI is above 100 µM in assay [13], above 100 µM in assay [14], above 100 µM in assay [15] and 98.4 µM in assay [16].

On to `Cc1cccc(CP(Cc2cccc(C)c2)CC2(Cp3c4ccccc4c4ccccc43)COC2)c1`, for which the TGI in assay [1] is above 100 µM; in assay [2] it was above 100 µM; in assay [3], above 100 µM; in [4] it was above 31.6 µM; in [5] it was above 100 µM; in assay [6], above 100 µM. For the same compound, the TGI in assay [7] was 13.4 µM; in [8], above 100 µM; in assay [9] it was above 100 µM; in assay [10] it was above 100 µM; in [11], above 100 µM; in assay [12], above 71.8 µM. Further, the TGI is above 31.6 µM in assay [13], above 100 µM in [14], above 100 µM in assay [15] and above 94.7 µM in assay [16].

In the case of `CCOP(=O)(OCC)C(C)(CC)N/C(=N/C(NC(C)=O)(C(F)(F)F)C(F)(F)F)NC1=NC(C(F)(F)F)(C(F)(F)F)N=C(C(F)(F)F)O1` (configuration not stated), the TGI in assay [1] is above 100 µM; in assay [2], above 100 µM; in assay [3], 47.4 µM; in assay [4], above 100 µM; in assay [5] it was 91.5 µM; in [6], above 100 µM. Also, the TGI was 31.9 µM in [7]; above 100 µM in assay [8]; 70.1 µM in assay [9]; 82.8 µM in [10]; 64.7 µM in assay [11]; above 100 µM in assay [12]. Also, the TGI in [13] is above 100 µM; in assay [14], above 100 µM; in assay [15] it was above 100 µM; in [16], 62.3 µM.

For the compound `COc1cc2c(cc1OCCCCN1C(=O)c3cccc4cccc(c34)C1=O)N=C[C@@H]1CCCN1C2=O`, the TGI is 82.8 µM in assay [1]; 20.5 µM in [2]; 28.4 µM in assay [3]; above 52.3 µM in assay [4]; 11.5 µM in assay [5]; 18.8 µM in assay [6]. The TGI in assay [7] is 4.42 µM; in assay [8] it was 5.08 µM; in [9], 23.5 µM; in [10], 45.8 µM; in assay [11], above 34.3 µM; in [12], 6.91 µM. The TGI was 17.7 µM in assay [13], above 100 µM in assay [14], above 53.4 µM in [15] and 17.9 µM in assay [16].
